Like-named read-outs stand apart in the source and are kept apart here.
Key:
[1] = target: T1, phosphorylated BTK protein in Ramos cells (Homo sapiens, UniProt Q06187); assay: Inhibitory activity against B-cell activation using Ramos cells (BTK phosphorylation); format: cell-based; conditions: anti-human IgM stimulation, pY223 Western blotting, read-out: Phosphorylated BTK inhibitory concentration (IC50, (nM))
T1 construct: endogenous in cells; host or cells: Ramos cells
Experimental: The human B-cell lymphoma-derived cell line, Ramos cells were suspended in RPMI1640 medium, and then the cells were inoculated in a culture plate at a concentration of 2.0×10^6 (cells/well). The cells were cultured in a CO2 incubator (Sanyo Electric Biomedical Co., Ltd.) at 37° C. for 12 hours. […] Then, 10 minutes of stimulation was provided with Goat F(ab′)2 anti-human IgM antibody-UNLB (southern biotech Corp.). Thereafter, the cells were harvested, and 50 μL of (a cell extract (NP-40; Invitrogen, Inc.) containing 1×protease inhibitor (Hoffmann-La Roche AG) and 1×phosphatase cocktail inhibitor (Sigma-Aldrich Co.)) was added to the cell pellets. The cell pellets were left to stand for 10 minutes on ice. The amount of protein in the collected cell extract was quantitatively analyzed by a DC protein assay (Bio-Rad Laboratories, Inc.), and 20 μg of proteins per lane was applied to a Criterion TGX™ (Bio-Rad Laboratories, Inc.). After electrophoresis was performed, Western blotting was performed with Trans-Blot™ Turbo™ (Bio-Rad Laboratories, Inc.). Thereafter, phosphorylated BTK protein and BTK protein were detected with LAS4000 (GE Healthcare, Inc.) with a BTK phosphor (pY223) antibody (EPITOMICS Inc.) and a BTK antibody (Abcam, plc.).

[2] = Influence on body weight of SD rat by repeated administration; format: in vivo
Experimental: The rats were grouped as follows, with four animals in each group, by a random classification method such that the average body weights of the respective groups would be almost uniform (Day 1).
The body weight change (BWC) was used as an index indicating the systemic toxicity caused by the compound administration. The BWC was calculated by the following formula. BWC (%)=([(Rat body weight on 14 days after the administration)−(Rat body weight at the time of grouping)]/(Rat body weight at the time of grouping))×100
The relative body weight change ratios in the each compound-administered groups were calculated by the following formula when the BWC in the vehicle-administered group was set as 1, and the results are indicated in Table 25. Relative body weight change ratio (%)=(BWC in the compound-administered group)/BWC in the vehicle-administered group)×100

MRL/lpr mice = assay: Mouse systemic lupus erythematosus model; format: in vivo; conditions: at the doses used in the test
Experimental: MRL/lpr mice (Japan SLC, Inc.) were used to evaluate drug efficacy in this test, since the mice are widely used as mice models in which symptoms of autoimmune diseases similar to human systemic lupus erythematosus spontaneously express. A grouping was carried out on the basis of swellings of lymph nodes in submaxilla and axilla at 14 weeks old, and once-daily oral administration was continued for 42 days from the day of grouping, with vehicle or Example Compound 13 suspension. Urea nitrogen concentration and anti-dsDNA antibody concentration in peripheral blood at the final administration day were measured.

TNP-IgE mice = assay: Mouse antigen-induced dermatitis model; format: in vivo; conditions: 30 minutes before allergen, 2 hours after antigen
Excerpt: Type I allergy models accompanied by a skin symptom (a dermatitis model) were produced, with TNP-IgE mice (CLEA Japan, Inc.). The mice are genetically modified BALB/c mice that constantly produce an IgE specific to hapten TNP (trinitrophenol) which is widely used as an allergen (antigen). It is possible to induce an allergic reaction in the mice, only by administering an allergen, without carrying out an immunization. […] An average value of thickening values of both ears was obtained as a value of an individual (provided that a previous value before the allergen application was 0 mm).
Ear swelling control ratio (%) was calculated by the following formula. Ear swelling control ratio (%)=(1−(Average value of ear thickening of compound administered group)/(Average value of ear thickening of vehicle administered group))×100

RBL-2H3 cells = assay: Inhibitory activity against allergic reaction using RBL-2H3 cells (PGD2 production); format: cell-based, rat; conditions: anti-DNP IgE / DNP-BSA, read-out: PGD2 production inhibitory concentration (IC50, (nM))
Experimental: Rat basophilic leukemia cells, RBL-2H3, were suspended in MEM medium containing 10% FBS, and then the cells were inoculated in a culture plate, and cultured in a CO2 incubator (Sanyo Electric Biomedical Co., Ltd.) at 37° C. for 12 hours. After a culture supernatant was removed and the cells were washed, an anti-DNP-mouse IgE (Alpha Diagnostic Inc.) solution was added thereto, and the cells were cultured in the CO2 incubator for 1 hour. After a culture supernatant was removed and the cells were washed, an MEM medium was added thereto.
Further, a DNP-BSA (LSL, Inc.) solution was added thereto and the cells were cultured in the CO2 incubator for 15 minutes. A culture supernatant was collected and reacted, with PGD2-MOX EIA kit (Cayman Chemical Inc.) on the basis of the protocol attached thereto, and absorbance was measured by SUNRISE RAINBOW THERMO (TECAM Inc.).

[3] = tested on: mouse collagen-induced arthritis model; assay: Mouse collagen-induced arthritis model (therapeutic effect), Test Example 8; format: in vivo; conditions: therapeutic administration, FIG. 3
Experimental: (§1) Seven-week-old male/DBA/1 mice (CHARLES RIVER LABORATORIES JAPAN, INC.) were intracutaneously injected in the dorsum with 100 μL/body of an equal amount-mixed solution (emulsion) of a 4 mg/mL bovine type 2 collagen solution (Collagen Research Center) and a complete freund's adjuvant (DIFCO Inc.) (Initial immunization). After 21 days therefrom, the mice were intracutaneously injected in the base of the tail with 100 μL/body of the equal amount-mixed solution (emulsion) of a 4 mg/mL of bovine type 2 collagen solution (Collagen Research Center) and a complete freund's adjuvant (DIFCO Inc.) to carry out an additional immunization. […] Symptoms of arthritis in day 0, day 4, day 7, day 11, and day 14 were scored with the naked eye (0: No change, 1: Swelling of a finger, 2: Swelling of two fingers or more, 3: Swelling of instep, 4: Swelling of all fingers besides swelling extending to wrist/ankle), and a total of four limbs was obtained as a point of an individual (maximum 16 points).

[4] = tested on: mouse collagen-induced arthritis model; assay: Mouse collagen-induced arthritis model (therapeutic effect), Test Example 7; format: in vivo; conditions: once-a-day oral for 15 days from sixth day after additional immunization, FIG. 2
Experimental: as §1

[5] = Rattus norvegicus, RBL-2H3, RBL-2H3 cells
[6] = repeated administration for two weeks

T1 sequence (Q06187 whole entry): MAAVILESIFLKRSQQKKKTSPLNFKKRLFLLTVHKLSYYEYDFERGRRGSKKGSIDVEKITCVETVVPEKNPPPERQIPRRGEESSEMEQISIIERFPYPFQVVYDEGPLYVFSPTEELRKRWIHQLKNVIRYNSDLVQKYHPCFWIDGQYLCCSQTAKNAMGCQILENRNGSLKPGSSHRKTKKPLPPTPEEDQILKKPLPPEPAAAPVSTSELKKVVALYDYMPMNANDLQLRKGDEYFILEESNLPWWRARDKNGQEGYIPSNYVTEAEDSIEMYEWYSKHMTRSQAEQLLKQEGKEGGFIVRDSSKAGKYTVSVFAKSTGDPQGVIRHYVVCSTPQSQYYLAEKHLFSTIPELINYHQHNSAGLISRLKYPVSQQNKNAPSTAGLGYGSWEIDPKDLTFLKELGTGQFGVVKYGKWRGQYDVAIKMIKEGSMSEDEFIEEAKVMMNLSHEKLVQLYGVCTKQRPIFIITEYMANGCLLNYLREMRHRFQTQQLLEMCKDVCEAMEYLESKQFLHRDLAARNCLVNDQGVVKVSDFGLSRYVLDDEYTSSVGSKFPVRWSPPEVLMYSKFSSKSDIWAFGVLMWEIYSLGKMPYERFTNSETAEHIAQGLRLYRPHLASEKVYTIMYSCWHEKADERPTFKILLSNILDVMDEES

SMILES | IC50 [1] | Relative body weight change ratio (%) ([2]; 750 mg/kg orally once a day, two weeks) | remarkable decrease in body weight (MRL/lpr mice) | Ear swelling control ratio (%) (TNP-IgE mice; 1 mg/kg oral) | Ear swelling control ratio (%) (TNP-IgE mice; 3 mg/kg oral) | IC50 (RBL-2H3 cells; [5]) | arthritis score [3] | loose bowel [2, 6] | rat body weight increase compared with the vehicle-administered group [2, 6] | arthritis score [4] | IC50 (RBL-2H3 cells; RBL-2H3 cells)
C=CC(=O)N1CCC[C@@H](n2nc(C(=O)Nc3nc4ccccc4o3)c3c(N)ncnc32)C1 [Example 13, (R)-1-(1-acryloylpiperidin-3-yl)-4-amino-N-(benzo[d]oxazol-2-yl)-1H-pyrazolo[3,4-d]pyrimidine-3-carboxamide] | 0.25 nM | 79.1% | not recognized | 54% | 79% | 26 nM | – | – | – | – | –
C=CC(=O)N1CCC[C@@H](n2nc(-c3ccc(Oc4ccccc4)cc3)c3c(N)ncnc32)C1 [Reference compound 1, (R)-1-(3-(4-amino-3-(4-phenoxyphenyl)-1H-pyrazolo[3,4-d]pyrimidin-1-yl)piperidin-1-yl)prop-2-en-1-one, reference compound] | – | – | – | – | – | ~350 nM | delayed the further increase of the increased arthritis score | individuals suffering from loose bowel were recognized | very small | delayed the further increase of the increased arthritis score | 348 nM

From patent publication US9782412B2, “Preventive and/or therapeutic agent of immune disease” (TAIHO PHARMACEUTICAL CO., LTD., priority 2015, dated 2017)
